Results as given in ChEMBL document CHEMBL1201862, “PubChem BioAssay data set” (2004).
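Cells were grown in 96-well plates and exposed to each compound for 48 hours at five concentrations; endpoints were interpolated linearly between bracketing concentrations, or set to the highest concentration if not reached. Here, GI50 denotes the concentration required for 50% inhibition of growth.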 Calls of active or inactive are those of the source. Cut-off read from the data, not from the text of the source: active = GI50 up to about 1.1 µM and inactive = higher.

Key:
Test in all cases: growth of human tumour cells (NCI), 48 h
SF-268 = tested on: SF-268
SNB-19 = tested on: SNB-19
786-0 = tested on: 786-0
SK-MEL-5 = tested on: SK-MEL-5
TK-10 = tested on: TK-10
IGROV-1 = tested on: IGROV-1
SK-OV-3 = tested on: SK-OV-3
Malme-3M = tested on: Malme-3M
SF-539 = tested on: SF-539
HCC 2998 = tested on: HCC 2998
OVCAR-5 = tested on: OVCAR-5
SR = tested on: SR
CCRF-CEM = tested on: CCRF-CEM
UO-31 = tested on: UO-31
UACC-257 = tested on: UACC-257
LOX IMVI = tested on: LOX IMVI

| SMILES | GI50 (SF-268) | GI50 (SNB-19) | GI50 (786-0) | GI50 (SK-MEL-5) | GI50 (TK-10) | GI50 (IGROV-1) | GI50 (SK-OV-3) | GI50 (Malme-3M) | GI50 (SF-539) | GI50 (HCC 2998) | GI50 (OVCAR-5) | GI50 (SR) | GI50 (CCRF-CEM) | GI50 (UO-31) | GI50 (UACC-257) | GI50 (LOX IMVI) |
| --- | --- | --- | --- | --- | --- | --- | --- | --- | --- | --- | --- | --- | --- | --- | --- | --- |
| C/C(CN1C(=O)c2ccccc2C1=O)=N\NS(=O)(=O)c1cccc(C(=O)O)c1 | > 100 µM (inactive) | > 100 µM (inactive) | > 100 µM (inactive) | > 100 µM (inactive) | > 100 µM (inactive) | > 100 µM (inactive) | > 100 µM (inactive) | > 100 µM (inactive) | > 100 µM (inactive) | > 100 µM (inactive) | > 100 µM (inactive) | > 100 µM (inactive) | > 100 µM (inactive) | > 100 µM (inactive) | > 100 µM (inactive) |  |
| O=C(NCCCCCCNC(=O)NC1OCC(O)C(O)C1O)NC1OCC(O)C(O)C1O (stereo not given) | > 100 µM (inactive) | < 0.01 µM (active) | > 100 µM (inactive) | > 100 µM (inactive) | > 100 µM (inactive) | > 100 µM (inactive) | > 100 µM (inactive) | > 100 µM (inactive) | > 100 µM (inactive) |  | > 100 µM (inactive) | > 100 µM (inactive) | > 100 µM (inactive) |  |  | > 100 µM (inactive) |
| COc1nc(NC2OC(COC(C)=O)C(OC(C)=O)C(OC(C)=O)C2OC(C)=O)c(/N=C/C=N/c2c(NC3OC(COC(C)=O)C(OC(C)=O)C(OC(C)=O)C3OC(C)=O)nc(OC)[nH]c2=O)c(=O)[nH]1 (stereo not given) | > 100 µM (inactive) | > 100 µM (inactive) | > 100 µM (inactive) | > 100 µM (inactive) | > 100 µM (inactive) | > 100 µM (inactive) | > 100 µM (inactive) | > 100 µM (inactive) | > 100 µM (inactive) | > 100 µM (inactive) | > 100 µM (inactive) |  | > 100 µM (inactive) | > 100 µM (inactive) | > 100 µM (inactive) | > 100 µM (inactive) |
| NCCCNCCCCN(CCCN)/[N+]([O-])=N\O | > 100 µM (inactive) | > 100 µM (inactive) | > 100 µM (inactive) | > 100 µM (inactive) |  | > 100 µM (inactive) |  | > 100 µM (inactive) | > 100 µM (inactive) | > 100 µM (inactive) | > 100 µM (inactive) | 28.6 µM (inactive) | > 100 µM (inactive) | > 100 µM (inactive) | > 100 µM (inactive) |  |
| O=C1C[C@@H]2[C@@H](C=CC23CC3)N1O | > 100 µM (inactive) | > 100 µM (inactive) | > 100 µM (inactive) | > 100 µM (inactive) | > 100 µM (inactive) | > 100 µM (inactive) | > 100 µM (inactive) | > 100 µM (inactive) | > 100 µM (inactive) | > 100 µM (inactive) | > 100 µM (inactive) |  | > 100 µM (inactive) | > 100 µM (inactive) | > 100 µM (inactive) | > 100 µM (inactive) |
| O=C(CC(=O)C(=O)Nc1ccccc1)CC(c1ccccc1)c1c(O)c2ccccc2oc1=O (stereo not given) | > 100 µM (inactive) | > 100 µM (inactive) | > 100 µM (inactive) | > 100 µM (inactive) | > 100 µM (inactive) | > 100 µM (inactive) | > 100 µM (inactive) | > 100 µM (inactive) | > 100 µM (inactive) | > 100 µM (inactive) | > 100 µM (inactive) |  | > 100 µM (inactive) | > 100 µM (inactive) |  | > 100 µM (inactive) |
| Cc1cc(C)c(C(=O)O)c(SSc2cc(C)cc(C)c2C(=O)O)c1 | > 100 µM (inactive) | > 100 µM (inactive) | > 100 µM (inactive) | > 100 µM (inactive) | > 100 µM (inactive) |  | > 100 µM (inactive) | > 100 µM (inactive) | > 100 µM (inactive) |  | > 100 µM (inactive) | > 100 µM (inactive) | 57.7 µM (inactive) | > 100 µM (inactive) | > 100 µM (inactive) | > 100 µM (inactive) |
| Cc1cc(N(CCC#N)CCC#N)ccc1/C=C\C(=O)Nc1ccccc1 | 97.1 µM (inactive) | > 100 µM (inactive) | > 100 µM (inactive) | > 100 µM (inactive) | > 100 µM (inactive) | > 100 µM (inactive) | > 100 µM (inactive) | > 100 µM (inactive) | 76.7 µM (inactive) | 13.6 µM (inactive) | 30.3 µM (inactive) |  | > 100 µM (inactive) | 33.5 µM (inactive) | > 100 µM (inactive) | 1.26 µM (inactive) |
| CCN1c2ccccc2C(C(SC)S(=O)(=O)c2ccc(C)cc2)c2c1[nH]c(=O)n(C)c2=O (stereo not given) | > 100 µM (inactive) | > 100 µM (inactive) | > 100 µM (inactive) | > 100 µM (inactive) | > 100 µM (inactive) | > 100 µM (inactive) | > 100 µM (inactive) | 88.1 µM (inactive) | > 100 µM (inactive) | > 100 µM (inactive) | > 100 µM (inactive) |  | > 100 µM (inactive) | > 100 µM (inactive) | > 100 µM (inactive) | > 100 µM (inactive) |
| CC1(OCc2ccccc2)C(=O)N2C1NCC2(C)C (stereo not given) | > 100 µM (inactive) | > 100 µM (inactive) | > 100 µM (inactive) | > 100 µM (inactive) | > 100 µM (inactive) | > 100 µM (inactive) |  | > 100 µM (inactive) | > 100 µM (inactive) | > 100 µM (inactive) |  | > 100 µM (inactive) | > 100 µM (inactive) | 86.5 µM (inactive) | > 100 µM (inactive) | > 100 µM (inactive) |
| CCc1cccc(C(C)C)c1NC(=O)C(=O)CC(=O)c1c(C)[n+]([O-])c2ccccc2[n+]1[O-] | > 100 µM (inactive) | > 100 µM (inactive) | > 100 µM (inactive) | > 100 µM (inactive) | > 100 µM (inactive) | > 100 µM (inactive) | > 100 µM (inactive) | > 100 µM (inactive) | > 100 µM (inactive) | > 100 µM (inactive) | > 100 µM (inactive) |  | > 100 µM (inactive) | > 100 µM (inactive) |  | > 100 µM (inactive) |
| CN(C)CCS/C(=N\c1ccccc1)n1cccc1 | 32.4 µM (inactive) | > 100 µM (inactive) | > 100 µM (inactive) | 35.9 µM (inactive) | > 100 µM (inactive) | > 100 µM (inactive) | > 100 µM (inactive) | 89.5 µM (inactive) | 66.5 µM (inactive) |  | > 100 µM (inactive) | 33.2 µM (inactive) | 57.7 µM (inactive) | 32.2 µM (inactive) | 42.9 µM (inactive) | 43.5 µM (inactive) |
| O=c1[nH]c(=O)n(C2CC(O)C(CO)O2)cc1OS(=O)(=O)C(F)(F)F (stereo not given) | > 100 µM (inactive) | > 100 µM (inactive) | > 100 µM (inactive) | > 100 µM (inactive) | > 100 µM (inactive) | > 100 µM (inactive) | > 100 µM (inactive) | > 100 µM (inactive) | > 100 µM (inactive) | > 100 µM (inactive) | > 100 µM (inactive) |  | > 100 µM (inactive) |  |  | > 100 µM (inactive) |
| ClCCC[Si]12OCCN(CCO1)CCO2 | > 100 µM (inactive) | > 100 µM (inactive) | > 100 µM (inactive) | > 100 µM (inactive) | > 100 µM (inactive) | > 100 µM (inactive) | > 100 µM (inactive) | > 100 µM (inactive) | > 100 µM (inactive) | > 100 µM (inactive) | > 100 µM (inactive) | > 100 µM (inactive) | > 100 µM (inactive) | > 100 µM (inactive) | > 100 µM (inactive) |  |
| CSc1nc(SC)c2c(C#N)n[nH]c2n1 | > 100 µM (inactive) | > 100 µM (inactive) | > 100 µM (inactive) | > 100 µM (inactive) | 49.4 µM (inactive) | > 100 µM (inactive) | > 100 µM (inactive) | > 100 µM (inactive) | > 100 µM (inactive) | > 100 µM (inactive) |  | > 100 µM (inactive) | > 100 µM (inactive) | > 100 µM (inactive) | > 100 µM (inactive) | > 100 µM (inactive) |
| COC(=O)[C@@H]1CCCCC[C@H]2C(CO)=C(C)C(=O)C12 (stereo not given in full) | > 100 µM (inactive) | > 100 µM (inactive) | > 100 µM (inactive) | > 100 µM (inactive) | > 100 µM (inactive) | > 100 µM (inactive) | > 100 µM (inactive) | > 100 µM (inactive) | > 100 µM (inactive) | > 100 µM (inactive) | > 100 µM (inactive) | > 100 µM (inactive) | > 100 µM (inactive) | > 100 µM (inactive) | > 100 µM (inactive) |  |
| COc1ccc(/C=C2\N=C(c3ccccc3)N(Nc3nnc(NN4C(=O)/C(=C/c5ccc(OC)cc5)N=C4c4ccccc4)c4ccccc34)C2=O)cc1 | 81.8 µM (inactive) | > 100 µM (inactive) | 56.9 µM (inactive) | 48.5 µM (inactive) |  | > 100 µM (inactive) |  |  | 70.6 µM (inactive) |  | > 100 µM (inactive) | 26.6 µM (inactive) | 30.7 µM (inactive) |  | > 100 µM (inactive) | 20.7 µM (inactive) |
| Cn1cnc(CCc2ccccc2)n1 | > 100 µM (inactive) |  | > 100 µM (inactive) | > 100 µM (inactive) | > 100 µM (inactive) | > 100 µM (inactive) | > 100 µM (inactive) | > 100 µM (inactive) | > 100 µM (inactive) |  | > 100 µM (inactive) | > 100 µM (inactive) | > 100 µM (inactive) | > 100 µM (inactive) | > 100 µM (inactive) | > 100 µM (inactive) |
